According to patent US9662322B2 (TEVA PHARMACEUTICAL INDUSTRIES, LTD., priority 2014, dated 2017):

Key:
[1] = system: subjects with relapsing remitting multiple sclerosis (RRMS); experiment: ALLEGRO Phase III trial: safety and tolerability; assay type: in vivo, human
Method: The following assessments were performed at specified time points: • 1. Vital signs were measured at each study visit. • 2. A physical examination is performed at months −1 (screening), 0 (baseline) 1, 3, 6, 12, 18 and 24 (termination/early discontinuation core study). In case of the 6 months extended study, additional examination was performed at month 30 (termination/early discontinuation of extended study). • 3. The following safety clinical laboratory tests were performed: • a. Complete blood count (CBC) with differential—at all scheduled visits. A reticulocyte count was added to the CBC at months 0 (baseline) and 24/30 (termination/early discontinuation). • b. Serum chemistry (including electrolytes, liver enzymes, direct and total bilirubin and pancreatic amylase and CPK), and urinalysis—at all scheduled visits. • c. A rapid urine β-hCG test was performed in women of child-bearing potential at baseline (month 0) and at each scheduled study visit thereafter (at site). • d. β-hCG in women of child-bearing potential was performed at all scheduled visits. • e. Starting after visit Month 3 a rapid urine β-hCG test was performed in women of child-bearing potential every 28 (±2) days. The subject was contacted by telephone within 72 hours after the test was scheduled to be performed and asked specific questions regarding the test. In case of suspected pregnancy (positive urine β-hCG test result), the caller made sure that the study drug has been discontinued and the subject was instructed to arrive at the site as soon as possible with all study drugs. • 4. Markers of inflammation (serum conventional C-reactive protein and fibrinogen)—at screening, baseline and all scheduled visits thereafter. • 5. During the first 3 months periodical phone calls were placed by the site personnel every two weeks. […] ECG was performed at months −1 (screening; additional recording, up to 30 minutes apart is performed if QTc is […] 450 msec), (baseline; three recordings, 15 minutes apart), 1, 2, 3, 6, 12, 18 and 24 (termination/early discontinuation). In case of the 6 months extended study, ECG is performed at month 30 (termination/early discontinuation of the extended study). • 7. Chest X-ray is performed at months −1 (screening), (if not performed within 7 months prior to the screening visit). • 8. Adverse Events (AEs) are monitored throughout the study. • 9. Concomitant medications are monitored throughout the study. • 10. Neurological evaluations, including Expanded Disability Status Scale (EDSS), 25 foot walk test/Ambulation Index (AI), Functional systems (FS) are performed at months −1 (screening), 0 (baseline) and every 3 months during the study and the extended study period. • 11. MS functional Composite (MSFC) was assessed at months −1 (screening) (three practices for training purposes only), at month 0 (baseline), 6, 12, 18 and 24 (termination/early discontinuation). In case of the 6 months extended study, the last MSFC was performed at months 30 (termination/early discontinuation of the extended study). • 12. Subject-reported fatigue was assessed by the Modified Fatigue Impact Scale (MFIS) at months 0, 6, 12, 18, and 24 (termination/early discontinuation). In case of the 6 months extended study, additional MFIS was performed at month 30 (termination/early discontinuation of the extended study). • 13. The general health status was assessed by the EuroQoL (EQ5D) questionnaire at month 0 (baseline) and month 24 (termination/early discontinuation of the study). In case of the 6 months extended study, the last EuroQoL (EQ5D) was performed at month 30 (termination/early discontinuation of the extended study) instead of month 24. • 14. The general health status was assessed by the Short-Form general health survey (SF-36) subject-reported questionnaire at month 0 (baseline) and every 6 months thereafter, until termination/early discontinuation. • 15. […]

[2] = system: patients with RRMS; conditions: pooled ALLEGRO and BRAVO, all patients, 0.6 mg QD vs PBO; cited from earlier work

For `CCN(C(=O)c1c(O)c2c(Cl)cccc2n(C)c1=O)c1ccccc1` [Laquinimod, laquinimod], the Deaths ([1]; 0.6 mg daily, 24 months) was “No deaths”, the “ALT elevations ≧5×ULN, patients” value ([1]; human, in vivo, 24 months) was 8 and the “Abdominal pain, % of patients” value ([1]; human, in vivo, 24 months) was 5.8%. For the same compound, the “Adverse events, number” value ([1]; human, in vivo, 24 months) was 3309, the Appendicitis ([1]; human, in vivo, 24 months) was 5 cases and the “Back pain, % of patients” value ([1]; human, in vivo, 24 months) was 16.4%. For the same compound, the “Cough, % of patients” value ([1]; human, in vivo, 24 months) was 7.5%, the Neoplasms ([1]; human, in vivo, 24 months) was 8 cases and the “Patients reporting 1 or more adverse events” value ([1]; human, in vivo, 24 months) was 87%. For the same compound, the “Serious adverse events (SAEs) reported, total” value ([1]; human, in vivo, 24 months) was 122, the “Shift to ALT ≧3×ULN and <5×ULN, % of patients” value ([1]; human, in vivo, 24 months) was 4.9% and the “Study discontinuation associated with these adverse events (abdominal pain, back pain, cough)” value ([1]; human, in vivo, 24 months) was 3%. For the same compound, the “Treatment discontinuation due to ALT≧3 and <5×ULN, patients” value ([1]; human, in vivo, 24 months) was 7, the Liver failure ([1]; in vivo) was “no cases of liver failure” and the “Reduction in 6-month confirmed disability progression (CDP)” value [2] was 46%.
